Measurements as given in US20100316529A1, “Anti-Microbial Systems and Methods” (priority 2001, published 2010).
Where “and” joins values, the source holds several entries; their conditions need not be identical. Equal entries are not always repeated.

What was measured:
Assay in all cases: EDTA salt dilution test, MIC/MBC
Type in all cases: cell-based
S. simulans = system: S. simulans
Description: (§1) Protocol one: Broth dilutions:
(§2) Inoculate a 25 ml nutrient broth (Oxoid No2) in a sterile universal container with one of the following organisms; Pseudomonas aeruginosa, Proteus Mirabilis, E. coli, Klebsiella pneumoniae, Staph aureus, Coagulase negative staphylococci, Enterococcus faecalis or MRSA.
(§3) Incubate the broth at 37° C. overnight.
(§4) To make these concentrations put the EDTA needed for 10 mLs in only 9 mLs of broth in sterile universal containers, as this will be diluted further when the organisms are added.
(§5) Dilute the overnight broth cultures to 10^7 organisms/mL using more sterile nutrient broth.
(§6) Add 1 mL of this diluent to each of the EDTA series broths. This gives a final concentration of 10^6 organism/mL in the EDTA broths.
(§7) Incubate for 18 hours at 37° C.
(§8) Next day visually read the MIC's by observing the turbidity of the broths.
(§9) Plate out 1 uL of each dilution onto fresh blood agar plate and spread using a sterile plastic spreader.
(§10) Incubate overnight at 37° C.
(§11) Next day read the MBC's by performing colony counts.

Kleb. pnemoniae = details: two entries
Description: as §1, §2, §3, §4, §5, §6, §7, §8, §9, §10, §11

Pseudomonas sp. = system: Pseudomonas sp.
Description: as §1, §2, §3, §4, §5, §6, §7, §8, §9, §10, §11

S. aureus = details: five entries
Description: as §1, §2, §3, §4, §5, §6, §7, §8, §9, §10, §11

MRSA = details: five entries
Description: as §1, §2, §3, §4, §5, §6, §7, §8, §9, §10, §11

Ent. faecalis = system: Ent. faecalis
Description: as §1, §2, §3, §4, §5, §6, §7, §8, §9, §10, §11

E. coli = details: three entries
Description: as §1, §2, §3, §4, §5, §6, §7, §8, §9, §10, §11

S. xylosus = system: S. xylosus
Description: as §1, §2, §3, §4, §5, §6, §7, §8, §9, §10, §11

S. capitis = details: two entries
Description: as §1, §2, §3, §4, §5, §6, §7, §8, §9, §10, §11

S. epidermidis = details: two entries
Description: as §1, §2, §3, §4, §5, §6, §7, §8, §9, §10, §11

VRE = details: two entries, Exhibit A1
Description: as §1, §2, §3, §4, §5, §6, §7, §8, §9, §10, §11

Pseudomonas aeruginosa = details: two entries
Description: as §1, §2, §3, §4, §5, §6, §7, §8, §9, §10, §11

S. lentus = system: S. lentus
Description: as §1, §2, §3, §4, §5, §6, §7, §8, §9, §10, §11

Proteus mirabilis = details: two entries
Description: as §1, §2, §3, §4, §5, §6, §7, §8, §9, §10, §11

Ent. faeculm = system: Ent. faeculm
Proteus vulgaris = system: Proteus vulgaris
Cornyeform amycolatum = system: Cornyeform amycolatum
Ent. cloacae = details: three entries
Acinetobacter baumanii = details: two entries, Exhibit A1
Kleb. oxytoca = system: Kleb. oxytoca
Kleb. ornitholytica = system: Kleb. ornitholytica
Steno. maltophilia = system: Steno. maltophilia
Coryneform strait/amy = system: Coryneform strait/amy

O=C([O-])CN(CCN(CC(=O)[O-])CC(=O)[O-])CC(=O)[O-].[Fe+3].[Na+] [Ferric-sodium salt EDTA]
MBC, minimum concentration required to kill an entire population (S. simulans; Exhibit A1): >30 mg/mL
MIC, minimum concentration required to inhibit growth (S. simulans; Exhibit A2): >20 mg/mL
MBC, minimum concentration required to kill an entire population (Kleb. pnemoniae; Exhibit A1): >15 mg/mL
MIC, minimum concentration required to inhibit growth (Kleb. pnemoniae; Exhibit A2): >15 mg/mL and 15 mg/mL
MBC, minimum concentration required to kill an entire population (Pseudomonas sp.; Exhibit A1): >15 mg/mL
MIC, minimum concentration required to inhibit growth (Pseudomonas sp.; Exhibit A2): 15 mg/mL
MBC, minimum concentration required to kill an entire population (S. aureus; Exhibit A1): >30 mg/mL
MIC, minimum concentration required to inhibit growth (S. aureus; Exhibit A2): >20 mg/mL
MBC, minimum concentration required to kill an entire population (MRSA; Exhibit A1): >30 mg/mL
MIC, minimum concentration required to inhibit growth (MRSA; Exhibit A2): >20 mg/mL
MBC, minimum concentration required to kill an entire population (Ent. faecalis; Exhibit A1): >30 mg/mL
MIC, minimum concentration required to inhibit growth (Ent. faecalis; Exhibit A2): 4 mg/mL
MBC, minimum concentration required to kill an entire population (E. coli; Exhibit A1): >15 mg/mL
MIC, minimum concentration required to inhibit growth (E. coli; Exhibit A2): 15 mg/mL and >15 mg/mL
MBC, minimum concentration required to kill an entire population (S. xylosus; Exhibit A1): >30 mg/mL
MIC, minimum concentration required to inhibit growth (S. xylosus; Exhibit A2): >20 mg/mL
MBC, minimum concentration required to kill an entire population (S. capitis; Exhibit A1): >30 mg/mL
MIC, minimum concentration required to inhibit growth (S. capitis; Exhibit A2): >20 mg/mL
MBC, minimum concentration required to kill an entire population (S. epidermidis; Exhibit A1): >30 mg/mL
MIC, minimum concentration required to inhibit growth (S. epidermidis; Exhibit A2): >20 mg/mL
MBC, minimum concentration required to kill an entire population (VRE): >30 mg/mL
MBC, minimum concentration required to kill an entire population (Pseudomonas aeruginosa; Exhibit A1): >15 mg/mL
MIC, minimum concentration required to inhibit growth (Pseudomonas aeruginosa; Exhibit A2): 15 mg/mL
MBC, minimum concentration required to kill an entire population (S. lentus; Exhibit A1): >30 mg/mL
MIC, minimum concentration required to inhibit growth (S. lentus; Exhibit A2): >20 mg/mL
MBC, minimum concentration required to kill an entire population (Proteus mirabilis; Exhibit A1): >15 mg/mL
MIC, minimum concentration required to inhibit growth (Proteus mirabilis; Exhibit A2): >15 mg/mL
MIC, minimum concentration required to inhibit growth (Ent. faeculm; Ent. faecuim, Exhibit A2): 4 mg/mL
MBC, minimum concentration required to kill an entire population (Ent. faeculm; Ent. faeculm, Exhibit A1): >30 mg/mL
MBC, minimum concentration required to kill an entire population (Proteus vulgaris; Exhibit A1): >15 mg/mL
MIC, minimum concentration required to inhibit growth (Proteus vulgaris; Exhibit A2): >15 mg/mL
MBC, minimum concentration required to kill an entire population (Cornyeform amycolatum; Exhibit A1): 10 mg/mL
MIC, minimum concentration required to inhibit growth (Cornyeform amycolatum; Exhibit A2): 10 mg/mL
MBC, minimum concentration required to kill an entire population (Ent. cloacae; Exhibit A1): >15 mg/mL
MIC, minimum concentration required to inhibit growth (Ent. cloacae; Exhibit A2): >15 mg/mL
MBC, minimum concentration required to kill an entire population (Acinetobacter baumanii): 10 mg/mL and >15 mg/mL
MBC, minimum concentration required to kill an entire population (Kleb. oxytoca; Exhibit A1): >15 mg/mL
MIC, minimum concentration required to inhibit growth (Kleb. oxytoca; Exhibit A2): >15 mg/mL
MBC, minimum concentration required to kill an entire population (Kleb. ornitholytica; Exhibit A1): >15 mg/mL
MIC, minimum concentration required to inhibit growth (Kleb. ornitholytica; Exhibit A2): 15 mg/mL
MBC, minimum concentration required to kill an entire population (Steno. maltophilia; Exhibit A1): >15 mg/mL
MIC, minimum concentration required to inhibit growth (Steno. maltophilia; Exhibit A2): 10 mg/mL
MBC, minimum concentration required to kill an entire population (Coryneform strait/amy; Exhibit A1): 10 mg/mL
MIC, minimum concentration required to inhibit growth (Coryneform strait/amy; Exhibit A2): 10 mg/mL
